Assay results from paper PMC8851660 (ACS Omega, 2022).
In brackets after ≈: the same amount, converted by molar mass.

Experiments:
P. aeruginosa MDR = test: microbe, parasite or virus in culture; type: cell-based, Pseudomonas aeruginosa; conditions: for MIC: Pseudomonas aeruginosa, read-out: Gram-negative MIC P. aeruginosa MDR
S. aureus clinical = test: microbe, parasite or virus in culture; type: cell-based; conditions: Staphylococcus aureus, read-out: Gram-positive MIC S. aureus clinical
E. coli (ATCC 25922) = test: microbe, parasite or virus in culture; type: cell-based; conditions: Escherichia coli, ATCC25922, read-out: Gram-negative MIC E. coli ATCC 25922
[1] = tested on: P. aeruginosa (ATCC 29853); type: cell-based, Pseudomonas aeruginosa
E. coli MDR = test: microbe, parasite or virus in culture; type: cell-based; conditions: Escherichia coli, read-out: Gram-negative MIC E. coli MDR
C. albicans clinical = test: microbe, parasite or virus in culture; type: cell-based, Candida albicans; conditions: for MIC: Candida albicans, read-out: fungi MIC C. albicans clinical

In the case of CC1(C)S[C@@H]2[C@H](NC(=O)[C@H](N)c3ccc(O)cc3)C(=O)N2[C@H]1C(=O)O [AMOX, amoxicillin, reference compound], the “Gram-negative MIC P. aeruginosa MDR” value (P. aeruginosa MDR) is reported as over 500 µg/mL, the MIC (P. aeruginosa MDR) is reported as over 500 µg/mL and the MIC (S. aureus clinical) is reported as at most 7.81 µg/mL. The MIC (E. coli (ATCC 25922)) was 62.5 µg/mL (≈ 171 µM), the “Gram-negative MIC P. aeruginosa (ATCC 29853)” value [1] was over 500 µg/mL and the MIC (E. coli MDR) was 250 µg/mL (≈ 684 µM).
Cc1nc2ccccc2n(-c2ccc([N+](=O)[O-])cc2[N+](=O)[O-])c1=O [Compound 4, 1-(2,4-Dinitrophenyl)-3-methylquinoxalin-2(1H)-one] gave an MIC (P. aeruginosa MDR) of 125 µg/mL (≈ 383 µM), an MIC (S. aureus clinical) of 16.1 µg/mL (≈ 49.4 µM) and an MIC (E. coli (ATCC 25922)) of 125 µg/mL (≈ 383 µM). It also gave an MIC (E. coli MDR) of 125 µg/mL (≈ 383 µM) and an MIC (C. albicans clinical) of 125 µg/mL (≈ 383 µM).
In the case of O=c1c(Cc2ccccc2)nc2ccccc2n1-c1ccc([N+](=O)[O-])cc1[N+](=O)[O-] [Compound 5, 3-Benzyl-1-(2,4-dinitrophenyl)quinoxalin-2(1H)-one], the MIC (P. aeruginosa MDR) is reported as 125 µg/mL (≈ 311 µM), the MIC (S. aureus clinical) is reported as 500 µg/mL (≈ 1240 µM) and the MIC (E. coli (ATCC 25922)) is reported as over 500 µg/mL. For the same compound, the MIC (E. coli MDR) was over 500 µg/mL and the MIC (C. albicans clinical) was over 500 µg/mL.
With O=[N+]([O-])c1ccc(Sc2nc3ccccc3s2)c([N+](=O)[O-])c1 [Compound 6, 2-[(2,4-Dinitrophenyl)thio]benzo[d]thiazole] the MIC (P. aeruginosa MDR) was 125 µg/mL (≈ 375 µM), the MIC (S. aureus clinical) was 500 µg/mL (≈ 1500 µM) and the MIC (E. coli (ATCC 25922)) was 500 µg/mL (≈ 1500 µM). The MIC (E. coli MDR) was over 500 µg/mL and the MIC (C. albicans clinical) was 500 µg/mL (≈ 1500 µM).
Compound Cn1ccc(=O)nc1Sc1ccc([N+](=O)[O-])cc1[N+](=O)[O-] [Compound 7, 2-[(2,4-Dinitrophenyl)thio]-1-methylpyrimidin-4(1H)-one] has an MIC (P. aeruginosa MDR) of 125 µg/mL (≈ 405 µM), an MIC (S. aureus clinical) of 32.2 µg/mL (≈ 105 µM) and an MIC (E. coli (ATCC 25922)) of 64.5 µg/mL (≈ 209 µM). It also gave an MIC (E. coli MDR) of 125 µg/mL (≈ 405 µM) and an MIC (C. albicans clinical) of 16.1 µg/mL (≈ 52.3 µM).
With O=[N+]([O-])c1ccc(Oc2cccc3cccnc23)c([N+](=O)[O-])c1 [Compound 8, 8-(2,4-Dinitrophenoxy)quinoline] the MIC (P. aeruginosa MDR) was 125 µg/mL (≈ 402 µM), the MIC (S. aureus clinical) was 125 µg/mL (≈ 402 µM) and the MIC (E. coli (ATCC 25922)) was 125 µg/mL (≈ 402 µM). It also gave an MIC (E. coli MDR) of 125 µg/mL (≈ 402 µM) and an MIC (C. albicans clinical) of 125 µg/mL (≈ 402 µM).
CC(C)(C)c1cccc(C(C)(C)C)c1Oc1ccc([N+](=O)[O-])cc1[N+](=O)[O-] [Compound 9, 1,3-Di-tert-butyl-2-(2,4-dinitrophenoxy)benzene] gave an MIC (P. aeruginosa MDR) of 125 µg/mL (≈ 336 µM), an MIC (S. aureus clinical) of 500 µg/mL (≈ 1340 µM) and an MIC (E. coli (ATCC 25922)) of over 500 µg/mL. The MIC (E. coli MDR) was 125 µg/mL (≈ 336 µM) and the MIC (C. albicans clinical) was over 500 µg/mL.
With O=[N+]([O-])c1ccc(-n2ccnc2)c([N+](=O)[O-])c1 [Compound 11, 1-(2,4-Dinitrophenyl)-1H-imidazole] the MIC (P. aeruginosa MDR) was 125 µg/mL (≈ 534 µM), the MIC (S. aureus clinical) was 125 µg/mL (≈ 534 µM) and the MIC (E. coli (ATCC 25922)) was 125 µg/mL (≈ 534 µM). It also gave an MIC (E. coli MDR) of 125 µg/mL (≈ 534 µM) and an MIC (C. albicans clinical) of 125 µg/mL (≈ 534 µM).
In the case of C[C@@H]1[C@H](O)[C@@H](C)/C=C/C=C/CC/C=C/C=C/C=C/C=C/C(O[C@H]2O[C@H](C)[C@@H](O)[C@H](N)[C@@H]2O)CC2O[C@](O)(CC(O)C(O)CCC(O)CC(O)CC(O)CC(=O)O[C@H]1C)CC(O)C2C(=O)O (stereo partly drawn) [NYS, nystatin, reference compound], the “fungi MIC C. albicans clinical” value (C. albicans clinical) is reported as under 2 µg/mL.
